Measurements reported in doi:10.1101/2020.06.18.159418v1 (biorxiv, 2020).

Columns and labels:
Format in all cases: binding
[1] = target: T1, HuPrP90-231 (Homo sapiens, UniProt P04156); experiment: biochemical
T1 construct: gene PRNP

[2] = target: T1, HuPrP90-231
[3] = target: T2, HuPrP23-231 (Homo sapiens, UniProt P04156); details: 0.3-1 mM compound, 20 mM HEPES pH 7.4, 150 mM NaCl, 3% DMSO, 298 K
T2 construct: gene PRNP

Question: `Cc1nc2cc(Cl)c(Cl)cc2[nH]1` [compound 1, 5,6-dichloro-2-methyl-1H-benzimidazole] was tested. Which Kd [1] did it give?
Answer: The Kd was over 1 mM.

Question: What about the “decrease in melting temperature” value [2] of the same compound?
Answer: The value was ~ 0.2 °C.

Question: What about the “1H-15N TROSY NMR chemical shift perturbation” value [3] of the same compound?
Answer: Its value is “we observed similar resonance shifts in the full-length protein HuPrP23-231”.
